Test results published in ChEMBL document CHEMBL5725558, “BTK Inhibitors” (2017).

Target: Tyrosine-protein kinase BTK (Homo sapiens, UniProt Q06187)
Test: Phosphorylation reactions were allowed to proceed for 120 minutes. […] After 60 minutes incubation with detection reagents, reaction plates were read on a PerkinElmer EnVision plate reader using standard TR-FRET protocol. […] IC50 values were determined by 4 parameter robust fit of TR-FRET ratio values vs. (Log10) compound concentrations.

Sequence of Tyrosine-protein kinase BTK (Q06187 whole entry): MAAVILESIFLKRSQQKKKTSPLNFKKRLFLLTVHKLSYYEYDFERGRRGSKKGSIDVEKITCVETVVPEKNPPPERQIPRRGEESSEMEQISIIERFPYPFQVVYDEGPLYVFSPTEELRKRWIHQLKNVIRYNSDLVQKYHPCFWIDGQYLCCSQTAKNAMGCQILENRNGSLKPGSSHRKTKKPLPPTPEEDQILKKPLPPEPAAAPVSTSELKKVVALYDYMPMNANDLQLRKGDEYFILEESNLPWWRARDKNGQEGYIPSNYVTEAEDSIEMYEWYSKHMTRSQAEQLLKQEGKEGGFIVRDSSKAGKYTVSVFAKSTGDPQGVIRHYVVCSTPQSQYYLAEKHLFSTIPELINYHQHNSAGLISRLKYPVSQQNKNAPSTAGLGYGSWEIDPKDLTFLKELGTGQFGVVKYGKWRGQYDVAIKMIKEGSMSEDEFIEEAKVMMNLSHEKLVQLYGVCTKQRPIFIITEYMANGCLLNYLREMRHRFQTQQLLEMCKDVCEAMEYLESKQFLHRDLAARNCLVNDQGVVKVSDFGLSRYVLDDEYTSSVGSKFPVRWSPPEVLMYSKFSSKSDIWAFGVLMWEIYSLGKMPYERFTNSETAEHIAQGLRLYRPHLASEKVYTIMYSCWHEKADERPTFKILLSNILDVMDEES

For `CC(=O)N1CCC[C@@H](c2nc(-c3ccc(C(=O)Nc4cc(C)ccn4)cc3)c3c(N)nccn23)C1`, which IC50 is on record?
The IC50 was < 10 nM.
